Source: ChEMBL document CHEMBL1201862, “PubChem BioAssay data set” (2004)
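Grown in 96-well plates, cells were treated for 48 hours with each compound at five concentrations. Insufficient inhibition: endpoint recorded as highest concentration tested. GI50 marks 50% less growth.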 The source made the active and inactive calls. Cut-off read from the data, not from the text of the source: active = GI50 up to about 1.1 µM and inactive = higher.

Experiments:
Test in all cases: NCI-60 cell line screen, 48 h
CAKI-1 = test system: CAKI-1
EKVX = test system: EKVX
HCC 2998 = test system: HCC 2998
HCT-116 = test system: HCT-116
HL-60 = test system: HL-60
HOP-62 = test system: HOP-62
Hs-578T = test system: Hs-578T
K562 = test system: K562
LOX IMVI = test system: LOX IMVI
M14 = test system: M14
MDA-N = test system: MDA-N
NCI-H460 = test system: NCI-H460
OVCAR-3 = test system: OVCAR-3
OVCAR-5 = test system: OVCAR-5
RXF 393 = test system: RXF 393
SK-MEL-28 = test system: SK-MEL-28
SNB-75 = test system: SNB-75
UACC-257 = test system: UACC-257
UO-31 = test system: UO-31
MDA-MB-231 = test system: MDA-MB-231

Measured: GI50

COc1ccc(/N=N/C(=O)NC(CC(C)C)C(=O)NC(CC(C)C)C(=O)O)cc1 (stereo not drawn)
inactive: CAKI-1 > 100 µM | EKVX > 100 µM | HCC 2998 30.9 µM | HCT-116 86.5 µM | HL-60 17.5 µM | HOP-62 > 100 µM | Hs-578T > 100 µM | K562 8.45 µM | LOX IMVI > 100 µM | M14 29.9 µM | MDA-N 35.3 µM | NCI-H460 68.9 µM | OVCAR-3 > 100 µM | OVCAR-5 4.02 µM | RXF 393 > 100 µM | SK-MEL-28 17.8 µM | SNB-75 > 100 µM | UACC-257 7.98 µM | UO-31 24.8 µM

CCOC(=O)CCCn1nnc(C(=O)OCC)c1C(=O)OCC
inactive: CAKI-1 > 100 µM | EKVX > 100 µM | HCC 2998 > 100 µM | HCT-116 > 100 µM | HOP-62 > 100 µM | Hs-578T > 100 µM | LOX IMVI > 100 µM | MDA-MB-231 > 100 µM | MDA-N > 100 µM | NCI-H460 > 100 µM | RXF 393 > 100 µM | SK-MEL-28 > 100 µM | SNB-75 > 100 µM | UACC-257 > 100 µM | UO-31 > 100 µM

O=C(/C=C/c1cccc(Oc2ccccc2)c1)NCc1ccc(C(=O)NCc2ccccc2)cc1
inactive: CAKI-1 43.8 µM | EKVX > 100 µM | HCC 2998 > 100 µM | HCT-116 50.6 µM | HOP-62 2.96 µM | Hs-578T > 100 µM | K562 > 100 µM | LOX IMVI > 100 µM | M14 > 100 µM | MDA-MB-231 52.2 µM | MDA-N > 100 µM | NCI-H460 > 100 µM | OVCAR-3 68.5 µM | OVCAR-5 > 100 µM | RXF 393 12.2 µM | SK-MEL-28 > 100 µM | SNB-75 12.1 µM | UACC-257 > 100 µM | UO-31 > 100 µM

CCOC(=O)c1c[nH]c2c(Sc3ccccc3)nccc2c1=O
inactive: CAKI-1 41.3 µM | EKVX > 100 µM | HCT-116 73.6 µM | HL-60 27.5 µM | HOP-62 > 100 µM | Hs-578T > 100 µM | LOX IMVI 31 µM | M14 > 100 µM | MDA-MB-231 53.1 µM | MDA-N > 100 µM | NCI-H460 > 100 µM | OVCAR-3 > 100 µM | OVCAR-5 > 100 µM | SK-MEL-28 > 100 µM | SNB-75 71.1 µM | UACC-257 > 100 µM | UO-31 13.2 µM

COC1CC2C=CC3C4OC2(/C(C)=C/C(C)C(C(C)O)OC1=O)C3C(O)C(C)C4OC(=O)c1ccc[nH]1 (stereo not drawn)
inactive: CAKI-1 > 100 µM | EKVX 63.4 µM | HCC 2998 74.6 µM | HCT-116 49.3 µM | HL-60 16.6 µM | HOP-62 > 100 µM | Hs-578T 94 µM | LOX IMVI 64 µM | M14 > 100 µM | MDA-MB-231 > 100 µM | MDA-N 45.5 µM | NCI-H460 67 µM | OVCAR-3 > 100 µM | OVCAR-5 > 100 µM | SK-MEL-28 > 100 µM | UACC-257 57.8 µM | UO-31 > 100 µM

O=C1CCCCC1=C(I)I
inactive: EKVX 1.88 µM | HCC 2998 15.8 µM | HCT-116 16.6 µM | HL-60 4.49 µM | HOP-62 28.7 µM | Hs-578T 63 µM | K562 16 µM | M14 18 µM | MDA-N 16.9 µM | NCI-H460 21.4 µM | OVCAR-3 16.3 µM | OVCAR-5 17.5 µM | RXF 393 16.2 µM | SK-MEL-28 17 µM | SNB-75 18.5 µM | UO-31 16.7 µM

CCN(CC)C(=S)SS(=O)(=O)c1ccccc1C(=O)O
inactive: CAKI-1 > 78 µM | EKVX > 100 µM | HCC 2998 > 100 µM | HCT-116 > 96.6 µM | HOP-62 > 100 µM | Hs-578T > 100 µM | K562 > 100 µM | LOX IMVI > 100 µM | M14 > 96.4 µM | MDA-MB-231 > 100 µM | MDA-N > 100 µM | NCI-H460 > 20 µM | OVCAR-3 > 100 µM | OVCAR-5 > 100 µM | RXF 393 > 70.3 µM | SK-MEL-28 > 100 µM | SNB-75 > 89.1 µM | UACC-257 > 100 µM | UO-31 > 94 µM

C(=N\c1nc2cc3sc(/N=C/c4ccccc4)nc3cc2s1)/c1ccccc1
inactive: CAKI-1 > 79.4 µM | EKVX 37.7 µM | HCC 2998 29.9 µM | HCT-116 44 µM | HOP-62 > 68.2 µM | Hs-578T > 45.9 µM | K562 29.1 µM | LOX IMVI 38.9 µM | M14 > 100 µM | MDA-MB-231 > 95.3 µM | MDA-N > 100 µM | NCI-H460 7.52 µM | OVCAR-3 > 85.3 µM | OVCAR-5 > 69.2 µM | RXF 393 > 100 µM | SK-MEL-28 > 100 µM | SNB-75 > 100 µM | UACC-257 > 100 µM | UO-31 62.5 µM

Cc1ccc2c(c1)-c1nc(N)c(C#N)c(-c3ccccc3)c1CCS2(=O)=O
inactive: CAKI-1 49.3 µM | HCC 2998 > 100 µM | HCT-116 > 100 µM | HOP-62 30.5 µM | Hs-578T 20.8 µM | K562 > 100 µM | LOX IMVI > 100 µM | M14 > 100 µM | MDA-MB-231 37 µM | MDA-N > 100 µM | NCI-H460 75.2 µM | OVCAR-3 29.5 µM | OVCAR-5 55 µM | SK-MEL-28 > 100 µM | SNB-75 24.4 µM | UACC-257 44.9 µM | UO-31 > 100 µM

C=CC(=O)Nc1ccc(NC(=O)C=C)c2c1C(=O)c1ccccc1C2=O
inactive: EKVX > 100 µM | HCC 2998 > 100 µM | HCT-116 62.8 µM | HL-60 3.86 µM | HOP-62 > 100 µM | Hs-578T > 100 µM | K562 15.7 µM | LOX IMVI 5.07 µM | M14 29.6 µM | MDA-MB-231 97.7 µM | MDA-N 36.1 µM | NCI-H460 > 100 µM | OVCAR-3 35.6 µM | OVCAR-5 > 100 µM | SK-MEL-28 33.5 µM | UACC-257 > 100 µM | UO-31 46.1 µM

CC(=O)OCC(OC(C)=O)C(OC(C)=O)C(OC(C)=O)C(C=NN(C(C)=O)S(=O)(=O)c1ccc(/C=C2\NC(=O)NC2=O)cc1)OC(C)=O (stereo not drawn)
inactive: CAKI-1 > 100 µM | EKVX > 100 µM | HCC 2998 > 100 µM | HCT-116 > 100 µM | HOP-62 > 100 µM | Hs-578T > 100 µM | K562 > 100 µM | LOX IMVI > 100 µM | M14 > 100 µM | MDA-MB-231 > 100 µM | MDA-N > 100 µM | NCI-H460 > 100 µM | OVCAR-3 > 100 µM | OVCAR-5 > 100 µM | RXF 393 > 100 µM | SNB-75 > 100 µM | UACC-257 > 100 µM | UO-31 > 100 µM
